EP3315028B1, “USE OF INHIBITORS OF NLP PROTEINS AS PHYTOPHARMACEUTICALS FOR PLANT PATHOGEN CONTROL” (Kemijski Institut, priority 2016, dated 2018)
“Also recorded” adds a separate entry of the source.

Experiments:
tobacco leaves = experiment: Control infiltration of tobacco leaves with compounds alone (necrosis); conditions: compound at the final 1 mM concentration, no NLP protein, 5 % DMSO (Figure 4)
Protocol: This biological test may be used to assess the impact of compounds on the functionality of NLPs. The NLP protein solution is injected in the absence or presence of the compounds into tobacco leaves of healthy plants. The plants are then observed for 1-3 days and checked for the presence of necrosis.
Compounds: Compounds were prepared as stock solutions with a concentration of 10 mM in DMSO. Appropriate working solutions were prepared by appropriate dilution of the stock solution. The concentration of DMSO in the test solution was 5 %.
Tobacco plants: Tobacco plants (Nicotiana tabacum White Burley) were cultured in chambers for growing plants under controlled conditions of light, humidity and temperature up to the age of 5-7 weeks.
Protein solution, compound and appropriate volume of ultrapure water were mixed in Eppendorf tubes. The mixture was mixed well and injected in the lower epidermis of tobacco leaves. We have injected 50 µL of solution. The area of injected solution was labelled on tobacco leaves. We used ultrapure water, 5 % DMSO, protein solutions of NLPs at different concentrations and appropriate dilutions of compounds as control solutions. The area on the lower side of the leaf, which was infiltrated with solutions, was photographed immediately after injection, and then after 24, 48 and 72 hours. On the third day the plant leaf was photographed also from the top side.

Phytophthora infestans = assay type: in vivo, Phytophthora infestans (strain 88069); conditions: for growth of the pathogen P. infestans on potato leaves, visual analysis: 1 mM compound in 10 µL drops with 5 × 10^4 mL^-1 zoospores, 4 days, 18 °C, vs control compound (Figure 6A); for amount of pathogen DNA by real-time PCR, control samples vs samples with compound: 1 mM compound, potato leaves 4 days after infection, Student's t-test, *** P <0.001 (Figure 6B)

SMILES	necrosis of tobacco leaves caused by compound solution alone (tobacco leaves)	growth of the pathogen P. infestans on potato leaves, visual analysis (Phytophthora infestans)	amount of pathogen DNA by real-time PCR, control samples vs samples with compound (Phytophthora infestans)
Cc1ccc2occ(C3NC(C(=O)O)CS3)c(=O)c2c1 (stereo not drawn) [Compound I, 2-(6-methyl-4-oxochromen-3-yl)-1,3-thiazolidin-3-ium-4-carboxylate]	did not cause necrosis; also recorded: Necrosis was not caused	able to inhibit growth of the pathogen	statistically significant amounts of pathogen DNA in control samples
COc1ccc(Nc2ccccc2C(=O)O)cc1 [Compound IIa, 2-[(4-methoxyphenyl)amino]benzoic acid]	did not cause necrosis; also recorded: Necrosis was not caused	able to inhibit growth of the pathogen	statistically significant amounts of pathogen DNA in control samples
